The values that follow come from patent publication US20170165236A1, “SELECTIVE SPHINGOSINE 1 PHOSPHATE RECEPTOR MODULATORS AND COMBINATION THERAPY THEREWITH” (Celgene International II Sàrl, priority 2013, published 2017).

In test [1] the target is S1P1/EDG1 (Homo sapiens, UniProt P21453). The test is described as follows: S1P1 CRE-bla CHOK1 reporter assay, inhibition of Forskolin induced cAMP. The format is cell-based. Particulars: CRE-bla CHOK1 cells, 2 μM Forskolin; read-out: S1P1 ACTIVITY (agonist activity). The procedure:
Generation of S1P1-Mediated Inhibition of cAMP Reporter Assay
S1P1/pcDNA3.1 was transfected into the CRE-bla CHO K1 (Invitrogen) cell line, and stable single cell clones were selected using standard techniques.
S1P1 CRE-Bla CHOK1 Reporter Assay—Characterization of S1P1 Agonists
Cells were seeded into 384-well black wall/clear bottom plates at 10^4 cells/well/19.5 μl assay media (DMEM-phenol free, 0.5% charcoal/dextran stripped serum, 2 mM glutamine, 0.1 mM NEAA, 1 mM Na-Pyruvate, 25 mM Hepes) and incubated for 18 hrs at 37° C. in 5% CO2. Dose response curves (10-point) were generated in 10 mM Hepes, 0.1% Pluronic F127, in the presence of Forskolin. Cells were treated with 0.5 μl compound in the presence of 2 μM Forskolin for 4 hrs at 37° C. The FRET-based β-lactamase fluorescent substrate (LiveBLAzer™-FRET B/G Loading Kit CC4-AM; Invitrogen) was prepared according to manufacturer's directions, and incubated with cells for 2 hrs at room temperature. […] Data was analyzed by non-linear regression to determine the EC50 for inhibition of Forskolin induced cAMP.
For orientation: In a reporter assay the amount or activity of a reporter protein is the signal.

The test system of test [2] is CD4 or CD8 positive T cells. Particulars: racemic compound 253; data stated as reported by Gonzalez-Cabrera et al. 2008; cited from earlier work.
Test [3] concerns the target S1P1 (Homo sapiens, UniProt P21453). As to the kind of experiment: Phosphorylated-ERK1/2 In Cell Western, wild type S1P1 in CHOK1. The test is classed as cell-based. As to the method:
(§1) CHOK1 cells were transfected using Fugene (Roche). Stably expressing mixed pools were selected with 2 mg/ml G418. Expression of functional S1P1/EDG1 receptor was confirmed by cell surface FACS with a S1P1 antibody (R&D Systems, clone 218713). Stable pools were seeded at 40,000 cells/well in a clear bottom 96-well tray, and incubated at 37° C. in 5% CO2 for 18 hrs. Cells were serum-starved in FreeStyle 293 medium (Invitrogen) for 4-6 h, then incubated for 5 min with a dose response of compound, in duplicate. Cells were fixed with 4% paraformaldehyde for 20 min, permeabilized with 0.1% Triton X-100 in PBS (4×5 min washes) and blocked for 1 h in Odyssey Blocking Buffer (LI-COR). All incubations were at room temperature. Cells were incubated for 18 h at 4° C. in Rabbit anti-Phospho-ERK1/2 (Cell Signaling #4377) and Mouse anti-ERK1/2 (Cell Signaling #9107) both diluted 1:800 in Odyssey Blocking Buffer. Plates were washed with 0.1% Tween-20 in PBS and then incubated with Odyssey Blocking Buffer containing IRDye 680-labeled goat anti-rabbit antibody (#926-32221; diluted 1/500) and IRDye 800CW-labeled goat anti-mouse antibody (#926-32210; diluted 1/1000). Plates were washed with 0.1% Tween-20 in PBS, all liquid was removed from the wells and the plates were scanned using a LICOR Odyssey scanner. […] Data was analyzed by non-linear regression using GraphPad Prism to determine the EC50 of binding.

The target in test [4] is S1P1 R120A/E121A (Homo sapiens, UniProt P21453, E121A/R120A). As to the kind of experiment: Phosphorylated-ERK1/2 In Cell Western, S1P1 mutant R120A/E121A. The test is classed as cell-based. As to the method:
(§2) Quick-change mutagenesis with PfuTurbo DNA polymerase (Stratagene) was conducted using S1P1/pcDNA3.1 (Missouri S&T cDNA Resource Centre) as the template. Primers were as follows: […]
(§3) PCR conditions were 15 cycles with the following parameters: 95° C. 30 sec, 58° C. 30 sec, 68° C. for 60 sec. All constructs were sequence verified.
as §1, with “Buffer.” for “Buffer. Plates were washed with 0.1% Tween-20 in PBS and then incubated with Odyssey Blocking Buffer containing IRDye 680-labeled goat anti-rabbit antibody (#926-32221; diluted 1/500) and IRDye 800CW-labeled goat anti-mouse antibody (#926-32210; diluted 1/1000). Plates were washed with 0.1% Tween-20 in PBS, all liquid was removed from the wells and the plates were scanned using a LICOR Odyssey scanner.”

In test [5] the target is S1P1 N101A (Homo sapiens, UniProt P21453, N101A). As to the kind of experiment: Phosphorylated-ERK1/2 In Cell Western, S1P1 mutant N101A. The test is classed as cell-based. The procedure:
as §2, §3
as §1, with “Buffer.” for “Buffer. Plates were washed with 0.1% Tween-20 in PBS and then incubated with Odyssey Blocking Buffer containing IRDye 680-labeled goat anti-rabbit antibody (#926-32221; diluted 1/500) and IRDye 800CW-labeled goat anti-mouse antibody (#926-32210; diluted 1/1000). Plates were washed with 0.1% Tween-20 in PBS, all liquid was removed from the wells and the plates were scanned using a LICOR Odyssey scanner.”

Test [6] deals with S1P1 W269L (Homo sapiens, UniProt P21453, W269L). As to the kind of experiment: S1P1 mutagenesis analysis, W269L mutant. The test is classed as cell-based. The procedure:
as §1, with “binding. […]” for “binding.”

The test system of test [7] is influenza A virus (A/WSN/33). As to the kind of experiment: Influenza A H1N1 model in mice. The note with it: mouse, in vivo.

A value given as a limit tells only on which side of the number the result lay.

Chain of S1P1/EDG1 (P21453 whole entry): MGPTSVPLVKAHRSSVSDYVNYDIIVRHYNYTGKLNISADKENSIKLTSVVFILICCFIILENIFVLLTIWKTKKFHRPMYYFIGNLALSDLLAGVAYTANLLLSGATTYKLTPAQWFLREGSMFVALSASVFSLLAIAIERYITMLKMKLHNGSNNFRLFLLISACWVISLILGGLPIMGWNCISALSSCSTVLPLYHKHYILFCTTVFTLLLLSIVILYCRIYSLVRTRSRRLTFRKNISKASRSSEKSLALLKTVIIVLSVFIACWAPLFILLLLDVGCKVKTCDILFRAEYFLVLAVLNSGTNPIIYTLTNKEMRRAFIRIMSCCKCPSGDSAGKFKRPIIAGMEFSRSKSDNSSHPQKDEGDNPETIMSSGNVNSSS
Chain of S1P1 (P21453 whole entry): as above
Chain of S1P1 R120A/E121A (P21453 whole entry R120A/E121A): as the sequence (P21453 whole entry) above, with R120A, E121A counted along it
Chain of S1P1 W269L (P21453 whole entry W269L): as the sequence (P21453 whole entry) above, with W269L counted along it
Chain of S1P1 N101A (P21453 whole entry N101A): as the sequence (P21453 whole entry) above, with N101A counted along it

As for `CC(C)Oc1ccc(-c2nc(-c3cccc4c3CC[C@@H]4NS(=O)(=O)CCN3CC(O)C3)no2)cc1C#N` [Compound 181], in test [1], the EC50 lay in the range of 0.05 to 0.5 nM.

For `CC(C)Oc1ccc(-c2nc(-c3cccc4c3CC[C@H]4NCC(=O)N3CCOCC3)no2)cc1C#N` [Compound 59], in test [1], the EC50 was 0.05 to 0.5 nM.

For the molecule `CC(C)Oc1ccc(-c2nc(-c3cccc4c3CC[C@@H]4N(CCO)S(=O)(=O)c3ccccc3)no2)cc1C#N` [Compound 117], the EC50 in test [1] is above 5 nM.

In the case of `CC(C)Oc1ccc(-c2nc(-c3cccc4c3CCC4NC[C@H](O)CO)no2)cc1C#N` (stereo partly shown) [Compound 41], in test [1], the EC50 lay within 0.05 to 0.5 nM.

Turning to `CCOc1ccc(-c2nc(-c3cccc4c3CC[C@H]4O)no2)cc1[N+](=O)[O-]` [Compound 11], the EC50 in test [1] was 0.5 to 5 nM.

Regarding `CC(C)Oc1ccc(-c2nc(-c3cccc4c3CCC4NC[C@@H](C)O)no2)cc1C#N` (stereo partly shown) [Compound 42], the EC50 in test [1] was in the range of 0.5 to 5 nM.

With `CC(C)Oc1ccc(-c2nc(-c3cccc4c3CC[C@H]4NC(C)C(=O)N(C)C)no2)cc1C#N` (stereo partly shown) [Compound 58], the EC50 in test [1] was 0.5 to 5 nM.

As to `CCOc1ccc(-c2nc(-c3cccc4c3CCC4NCCO)no2)cc1OCC` (racemic) [Compound 253, (+/−)-2-((4-(5-(3,4,DIETHOXYPHENYL)-1,2,4-OXADIAZOL-3-YL)-2,3-DIHYDRO-1H-INDEN-1-YL) AMINO)ETHANOL], in test [2], the “Mouse Lymphopenia (AUEC)” value is 116.

Take `CC(C)Oc1ccc(-c2nc(-c3cccc4c3CC[C@@H]4N)no2)cc1C#N` [Compound 50, (S)-5-(3-(1-amino-2,3-dihydro-1H-inden-4-yl)-1,2,4-oxadiazol-5-yl)-2-isopropoxy-benzonitrile]: in test [3], the “S1P1 agonism, phosphorylation of ERK1/2” value is “induce phosphorylation of ERK1/2”. The “effect of S1P1 mutation on binding” value in test [4] is on record as “no influence on the binding”; in test [5] it was “reduces the binding”; in test [6] it was “abolishes binding”.

In the case of `CC(C)Oc1ccc(-c2nc(-c3cccc4c3CC[C@@H]4NC(=O)N(C)C)no2)cc1C#N` [Compound 120], the EC50 in test [1] was 0.05 to 0.5 nM.

For the molecule `COCCN[C@@H]1CCc2c(-c3noc(-c4ccc(OC(C)C)c(C#N)c4)n3)cccc21` [Compound 88], the EC50 in test [1] is 0.5 to 5 nM.

On to `CC(C)Oc1ccc(-c2nc(-c3cccc4c3CCC4NC[C@H](C)O)no2)cc1C#N` (stereo partly shown) [Compound 43], for which the EC50 in test [1] lay within 0.05 to 0.5 nM.

Consider `CNCCS(=O)(=O)N[C@@H]1CCc2c(-c3noc(-c4ccc(OC(C)C)c(C#N)c4)n3)cccc21` [Compound 74], for which the EC50 in test [1] lay in the range of 0.05 to 0.5 nM.

`CC(C)Oc1ccc(-c2nc(-c3cccc4c3CC[C@@H]4NS(=O)(=O)CCN3CCC(O)CC3)no2)cc1C#N` [Compound 178]: the EC50 in test [1] fell in the range of 0.5 to 5 nM.

As to `CC(C)Oc1ccc(-c2nc(-c3cccc4c3CCC4NCCC(=O)O)no2)cc1C#N` (racemic) [Compound 38], in test [3], the “S1P1 agonism, phosphorylation of ERK1/2” value is recorded as “induce phosphorylation of ERK1/2”. Besides, the “effect of S1P1 mutation on binding” value in test [4] is “diminishes binding”; in test [5], “no effect on binding”; in test [6] it was “abolishes binding”.

Take `CC(C)Oc1ccc(-c2nc(-c3cccc4c3CC[C@H]4NS(=O)(=O)CCN3CCC3)no2)cc1C#N` [Compound 168]: the EC50 in test [1] was 0.05 to 0.5 nM.

As for `CC(C)Oc1ccc(-c2nc(-c3cccc4c3CC[C@@H]4N(C)CC(=O)N(C)C)no2)cc1C#N` [Compound 115], the EC50 in test [1] fell in the range of 0.5 to 5 nM.

Regarding `CC(C)Oc1ccc(-c2nc(-c3cccc4c3CC[C@H]4NS(C)(=O)=O)no2)cc1C#N` [Compound 70], the EC50 in test [1] lay within 0.05 to 0.5 nM.

Consider `CCOc1ccc(-c2nc(-c3cccc4c3CC[C@@H]4O)no2)cc1[N+](=O)[O-]` [Compound 12], for which the EC50 in test [1] lay in the range of 0.5 to 5 nM.

Take `CC(C)Oc1ccc(-c2nc(-c3cccc4c3CC[C@H]4NS(=O)(=O)CCN(C)C)no2)cc1C#N` [Compound 77]: in test [1], the EC50 was in the range of 0.05 to 0.5 nM.

As to `CC(C)Oc1ccc(-c2nc(-c3cccc4c3CC[C@H]4NC(=O)c3ccc(Br)cc3)no2)cc1C#N` [Compound 122], in test [1], the EC50 is above 5 nM.

In the case of `CC(C)Oc1ccc(-c2nc(-c3cccc4c3CC[C@H]4NCCO)no2)cc1C#N` [Compound 85, (R)-5-(3-(1-(2-hydroxyethylamino)-2,3-dihydro-1H-inden-4-yl)-1,2,4-oxadiazol-5-yl)-2-isopropoxybenzonitrile], the “suppression of cellular infiltrate into the lungs” value in test [7] is 40%.

Regarding `CC(C)Oc1ccc(-c2nc(-c3cccc4c3CC[C@H]4N(C)CCO)no2)cc1C#N` [Compound 111], the EC50 in test [1] fell in the range of 0.5 to 5 nM.

In the case of `CC(C)Oc1ccc(-c2nc(-c3cccc4c3CC[C@@H]4NS(=O)(=O)CCNCCO)no2)cc1C#N` [Compound 180], the EC50 in test [1] fell in the range of 0.05 to 0.5 nM.

Turning to `CC(C)Oc1ccc(-c2nc(-c3cccc4c3CC[C@@H]4NS(=O)(=O)CCN3CCNCC3)no2)cc1C#N` [Compound 179], in test [1], the EC50 was in the range of 0.5 to 5 nM.
